Assay results reported in US5198336A, “Bioassay for chemicals which generate prooxidant states” (Wisconsin Alumni Research Foundation, priority 1989, dated 1993).

Test system: submitochondrial electron transport particles (ETP) having competent electron transport enzyme complex I
Assay: facilitated electron withdrawal bioassay with SOD-depleted submitochondrial electron transport particles (adrenochrome formation, absorbance at 480 nm)
Assay type: biochemical, bovine (beef heart)
Details: for lowest observable effect concentration (LOEC): concentration giving a response three standard deviations above mean control, HEPES buffer pH 7.2, 1.5 mM epinephrine, 0.5 mg ETP, 125 uM NADH, 10 minute incubation; for lowest observable effect concentration (LOEC) / relative potency to induce a prooxidant state (FIG. 4): 0.2 ug per ml antimycin A; for relative potency to induce a prooxidant state (FIG. 4): ranking among the five agents tested, 0 to 10 ug per ml toxicant
Description: The practice of the present invention began with the creation of submitochondrial electron transport particles (ETP) isolated from beef hearts. These are also referred to as submitochondrial particles. The mitochondria were isolated from bovine heart muscle by the method of Blair, supra. The superoxide dismutase-depleted ETP particles were prepared by sonicating the thawed mitochondria for two minutes in a medium containing 0.25M sucrose and 2 mM EDTA, pH 7.5, at a protein concentration of 25 mg per ml. The result was diluted with an equal volume of 0.25M sucrose and adjusted to a pH of 7.5 after which it was centrifuged for 40 minutes at 105,000×g. The resulting ETP particles were washed in ten volumes of 0.25M sucrose and sedimented by centrifugation. After treatment the ETP particles were stored frozen in buffered 0.25M sucrose at a protein concentration of 20 mg per ml.
The test medium contained 50 mM HEPES buffer, 1.5 mM epinephrine and 0.4 uM antimycin. The medium was adjusted to a pH of 7.2 with 5M potassium hydroxide and dispensed in 1.8 ml aliquots into 1-CM path length glass cuvettes. Either aqueous diluent or the test sample was added in a volume of 20-50 ul so that the final concentration ranged between 0 and 100 ug per ml. Following the addition of 0.5 mg of the SOD-depleted ETP particles suspended in a 0.1 ml 50 mM HEPES buffer, the cuvettes were covered with parafilm and inverted three times to mix the contents. First a base line absorbance reading was taken by the spectrophotometer set for 480 nm.
After the base line reading was taken, the reaction was started by adding 50 ul of 5 mM NADH. The final absorbance readings were then taken after a 10 minute incubation at room temperature. The final absorbance readings were used to calculate a lowest observable effect concentration (LOEC) for each of the chemicals tested. […] It is intended that the LOEC value be analogous to the limited detection value used for environmental samples subject to conventional analysis.
All experiments summarized in this table and in FIG. 4 were conducted with 2 ml HEPES buffer, a pH of 7.2, 1.5 mM epinephrine, 0.2 ug per ml antimycin A, 0.5 mg ETP, 125 uM NADH and 0 to 10 ug per ml of the test toxicant.

O=[N+]([O-])c1cc[n+]([O-])c2ccccc12 [4-Nitroquinoline-N-oxide]
lowest observable effect concentration (LOEC): 1600 µg/L

C[n+]1ccc(-c2cc[n+](C)cc2)cc1 [Paraquat]
lowest observable effect concentration (LOEC): 3500 µg/L
effect of antimycin A or rotenone on the response to paraquat (FIG. 3) (with vs without 0.2 ug per ml antimycin A or 0.2 ug per ml rotenone, absorbance at 480 nm): increases the rate at which paraquat can draw electrons from the electron transport cascade

COc1cccc2c1C(=O)c1c(O)c3c(c(O)c1C2=O)C[C@@](O)(C(=O)CO)C[C@@H]3O[C@H]1C[C@H](N)[C@H](O)[C@H](C)O1 [Adriamycin]
lowest observable effect concentration (LOEC): 6300 µg/L
relative potency to induce a prooxidant state (FIG. 4): weakest

c1cc[n+]2c(c1)-c1cccc[n+]1CC2 [Diquat]
lowest observable effect concentration (LOEC): 1600 µg/L

O=S(=O)(O)c1ccccc1N=Nc1c(S(=O)(=O)O)cc2cc(S(=O)(=O)O)c(N=Nc3ccccc3S(=O)(=O)O)c(O)c2c1O [Sulfonazo III]
lowest observable effect concentration (LOEC): 320 µg/L
relative potency to induce a prooxidant state (FIG. 4): strongest inducer of the prooxidant states
